According to patent US7919519B2, “S1P receptor modulating compounds and use thereof” (Epix Pharmaceuticals Inc., priority 2005, dated 2011):

The compounds below were run against T1, hS1P1 (Homo sapiens, UniProt P21453) (assay: hS1P1 EC50 (S1P receptor Ca2+ flux protocol, CHO K1 Gqi5 cells)).
T1 construct: expressed in transfected cells
Format: cell-based
Description: S1P receptor activity may also be measured by an S1P receptor (e.g., hS1P1, hS1P3, rS1P1, rS1P3 and parental cell) Ca^2+ Flux protocol as described below:
1. Material • a. FLIPR buffer: 1×HBSS; 10 mM HEPES • b. Cell growth media: • i. human and rat S1P1 and S1P3: F12-Ham's media; 10% FBS (qualified); 1× Pen/Strep/Glu; 300 ug/mL Hygromycin; 400 ug/mL Geneticin • ii. Parental cell: human and rat S1P1 and S1P3: F12-Ham's media; 10% FBS (qualified); 1× Pen/Strep/Glu; 300 ug/mL Hygromycin; • c. Cell seeding media; F12-Ham's media; 10% FBS (Charcoal/dextran stripped); 1× Pen/Strep/Glu; • d. Cell dissociation buffer: Versene from Invitrogen • e. Agonist (S1P) dissolving buffer: 0.4% (w/v) fatty-acid free BSA (Sigma #A8806) in FLIPR buffer • f. FLIPR dye: BD PBX Calcium assay kit; Cat#641077 is composed of Calcium indicator (Cat#850000) and 100×PBX signal enhancer (cat#850001). The 100×PBX signal enhancer is diluted into FLIPR buffer 1:100 and the calcium indicator is then added at 1:1000 ratio. • g. Cell plates (96-well): Greiner Cat#655090 • h. Compound plates (96-well): Costar #3365 • i. S1P stock solution preparation: S1P is purchased from CalBioChem (Catalog #970471; 1 mg vial; custom prep using methanol, & nitrogen gas drying inside glass vial; Storage @ −20° C.). Dissolve 1 vial of S1P into 26.4 ml of agonist dissolving buffer in a 50 ml centrifuge tube; Remove label from bottle of S1P, open and drop entire bottle into tube. Sonicate at 37° for ½ hour. Clear solution of 100 μM will result. This stock solution is aliquoted and stored at −80 C
2. Cell line maintenance • a. V5 tags were added at the N-terminus of hS1P1, hS1P3, rS1P1 and rS1P3. All four genes were transfected into CHO K1 cells which stably express Gqi5. • b. hS1P1 and hS1P3 were established as stable clones and rS1P1 and rS1P3 were sorted by anti V5 tag and established as stable pools after sorting. • c. Parental cell line CHO/K1 Gqi5 is used as the control. • d. All the cells are maintained in cell growth media and splitted twice a week using Versene. • e. All the cell lines are used under passage 30.
3. Assay protocol • a. Cell seeding: Cells are lifted from the flask by Versene and seeded in cell plates at 50K/well in cell seeding media. Cells are grown overnight at 37 degree. • b. Cell loading: Cell seeding media is discarded. Cells are loaded with 50 ul of FLIPR dye at RT for 90 min. Signal is stable for up to 5 h after dye loading. • c. Agonist (S1P) preparation: Frozen stock of S1P is thawed out and sonicated at 37 c for 30 minutes every time before use. The stock is then diluted into FLIPR buffer at proper concentration. • d. Compound preparation: Compounds are dissolved in DMSO. A 3×, 10 point dilution of the compounds are carried out in DMSO. Then the compounds are diluted into assay buffer 133× so that the DMSO concentration is 0.75%. • e. Activity measurement: The fluorescence signal change of the cells upon compound addition is monitored in FLIPRtetra. 25 ul of compound is transferred into the cell plates (50 ul of FLIPR dye; DMSO concentration: 0.25%). Signal is recorded for 90 sec after compound addition. Then 50 ul of 500 nM S1P is added in the cell plate, and signal is recorded for 90 seconds upon addition.
4. Data analysis • a. Peak value is calculated for each compound/S1P addition • b. The peak value of S1P at 200 nM is used as high control (100%), and the peak value of buffer only is used as low control (0%). • c. Data is normalized against high and low controls using the following equation: POC—S=100*(RAW−LO)/(HI−LO) • d. Peak value is plotted against the concentration of compound. • e. Curve is fitted using the 4 parameter fit: Y=(A+(B/(1+((x/C)^D)))) • where: • Y is POC_S (or POC) • X is compound concentration • A is the minimum (EC50min or IC50min) • B is the maximum (EC50max or IC50max) • C is the inflection point (EC50IP or IC50IP) • D is the hill slope (EC50 slope or IC50 slope).

T1 sequence (P21453 whole entry): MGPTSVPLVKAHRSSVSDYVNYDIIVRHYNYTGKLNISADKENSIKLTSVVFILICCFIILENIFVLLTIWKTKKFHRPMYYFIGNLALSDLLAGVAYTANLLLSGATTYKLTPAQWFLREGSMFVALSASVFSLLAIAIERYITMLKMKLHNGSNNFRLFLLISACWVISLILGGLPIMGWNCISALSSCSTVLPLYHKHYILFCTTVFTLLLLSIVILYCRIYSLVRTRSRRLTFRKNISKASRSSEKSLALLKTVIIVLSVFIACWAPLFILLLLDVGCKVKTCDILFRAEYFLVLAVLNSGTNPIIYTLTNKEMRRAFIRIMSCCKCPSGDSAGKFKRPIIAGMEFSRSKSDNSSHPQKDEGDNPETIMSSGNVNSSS

| SMILES | EC50 [µM] |
| --- | --- |
| O=C(O)C1CCN(Cc2ccc(-c3cc4cc(C5CCCCC5)ccc4o3)cc2)CC1 [Compound 7, 1-(4-(5-cyclohexylbenzofuran-2-yl)benzyl)piperidine-4-carboxylic acid] | > 25 |
| CCCCc1ccc2oc(-c3ccc(CN4CCC(C(=O)O)CC4)cc3)cc2c1 [Compound 8, 1-((4-(5-Butylbenzofuran-2-yl)phenyl)methyl)piperidine-4-carboxylic acid] | > 25 |
| CCCCOc1ccc2cc(-c3ccc(CN4CC(C(=O)O)C4)cc3)oc2c1 [Compound 21, 1-((4-(6-Butoxybenzofuran-2-yl)phenyl)methyl)azetidine-3-carboxylic acid] | 0.2 |
| CCCCOc1ccc2oc(-c3ncc(CN4CC(C(=O)O)C4)s3)cc2c1 [Compound 22, 1-((2-(5-butoxybenzofuran-2-yl)thiazol-5-yl)methyl)azetidine-3-carboxylic acid] | 1.1 |
| CCCCOc1ccc2oc(-c3ccc(CN4CC(C(=O)O)C4)cc3F)cc2c1 [Compound 23, 1-((4-(5-Butoxybenzofuran-2-yl)3-fluorophenyl)methyl)azetidine-3-carboxylic acid] | 0.52 |

Other lines, results leading:

| EC50 [µM] | SMILES |
| --- | --- |
| ≥ 25 | O=C(O)C1CCN(Cc2ccc(-c3cc4cc(Cc5ccccc5)ccc4o3)cc2)CC1 [Compound 9, 1-((4-(5-Benzylbenzofuran-2-yl)phenyl)methyl)piperidine-4-carboxylic acid] |
| ≥ 25 | O=C(O)C1CN(Cc2ccc(-c3cc4cc(CCc5ccccc5)ccc4o3)cc2)C1 [Compound 11, 1-((4-(5-phenethylbenzofuran-2-yl)phenyl)methyl)azetidine-3-carboxylic acid] |
| > 25 | CC(C)Cc1ccc2oc(-c3ccc(CN4CCC(C(=O)O)CC4)cc3)cc2c1 [Compound 13, 1-(4-(5-isobutylbenzofuran-2-yl)benzyl)piperidine-4-carboxylic acid] |
| ≥ 25 | O=C(O)C1CN(Cc2ccc(-c3cc4cc(-c5cccs5)ccc4o3)cc2)C1 [Compound 28, 1-((4-(5-(thiophen-2-yl)benzofuran-2-yl)phenyl)methyl)azetidine-3-carboxylic acid] |
| > 25 | CC(C)(CC(=O)O)NCc1ccc(-c2cc3cc(Cc4ccccc4)ccc3o2)c(F)c1 [Compound 46, 3-((4-(5-Benzylbenzofuran-2-yl)-3-fluorophenyl)methylamino)-3-methylbutanoic acid] |
